The source of these data is the OPERA property sets (Mansouri et al. 2018).

In brackets after ≈: the same amount, converted by molar mass.

Broadly, the solubility is the dissolved amount per volume that the medium holds. Low readings indicate little dissolved substance, high ones much dissolved substance.

For this series the following is noted: 25 °C.

`O=C1C2CC=CCC2C(=O)N1SC(Cl)(Cl)Cl` (stereo not drawn) had a solubility of 0.017 mM (≈ 5.1 µg/mL).

For `CCN(CC)C(=O)SCc1ccc(Cl)cc1`, the solubility came out at 0.109 mM (≈ 28 µg/mL).

The compound `CNC(=O)Oc1ccc(SC)c(C)c1` had a solubility of 0.107 mM (≈ 22.5 µg/mL). The solubility values of the last two compounds are within 1.5-fold of each other.

Turning to `c1ccc2[nH]c(-c3cscn3)nc2c1`, the solubility stood at 0.248 mM (≈ 50 µg/mL).

`COP(=O)(NC(C)=O)SC` (stereo not drawn) had a solubility of 4470 mM (≈ 818000 µg/mL).

As to `CC(C)[C@H](C(=O)OC(C#N)c1cccc(Oc2ccccc2)c1)c1ccc(OC(F)F)cc1` (stereo partly drawn), the solubility was 0.000133 mM (≈ 0.06 µg/mL).

With `COC(=O)Nc1cccc(OC(=O)Nc2cccc(C)c2)c1`, the solubility was 0.0161 mM (≈ 4.85 µg/mL).

`CC(C)C(Nc1ccc(C(F)(F)F)cc1Cl)C(=O)OC(C#N)c1cccc(Oc2ccccc2)c1` (stereo not drawn) registered a solubility of 6.29e-06 mM (≈ 0.00316 µg/mL).

As for `COC(=O)c1ccccc1CS(=O)(=O)NC(=O)Nc1nc(OC)cc(OC)n1`, the solubility amounted to 0.292 mM (≈ 120 µg/mL).

In turn, `Cn1c(=O)on(-c2ccc(Cl)c(Cl)c2)c1=O` came in with a solubility of 0.00575 mM (≈ 1.5 µg/mL).

Compound `CC(C)NC(=O)N1CC(=O)N(c2cc(Cl)cc(Cl)c2)C1=O` displayed a solubility of 0.0421 mM (≈ 13.9 µg/mL).

Turning to `CCCSP(=O)(OCC)SCCC`, the solubility was 3.09 mM (≈ 750 µg/mL).

Turning to `CC(C)(C)C(=O)C(Oc1ccc(Cl)cc1)n1cncn1` (stereo not drawn), the solubility was found to be 0.243 mM (≈ 71.5 µg/mL). Against the preceding compound, the solubility is about 13-fold lower.
